Each structure is given as a SMILES string. Read-outs that look alike come from different tables or passages of the source.

This passage reports remaining binding results from US12479847B2 (DANA-FARBER CANCER INSTITUTE, INC., priority 2019, dated 2025).

What all share (assay): KINOMEscan (ScanMAX) kinase profiling
Type in all cases: binding

Test [1] has as its target T1, panel of 468 kinases (Homo sapiens, UniProt Q9Y616).
T1 construct: purchased KINOMEscan (ScanMAX) service
T1 sequence (Q9Y616 1-596): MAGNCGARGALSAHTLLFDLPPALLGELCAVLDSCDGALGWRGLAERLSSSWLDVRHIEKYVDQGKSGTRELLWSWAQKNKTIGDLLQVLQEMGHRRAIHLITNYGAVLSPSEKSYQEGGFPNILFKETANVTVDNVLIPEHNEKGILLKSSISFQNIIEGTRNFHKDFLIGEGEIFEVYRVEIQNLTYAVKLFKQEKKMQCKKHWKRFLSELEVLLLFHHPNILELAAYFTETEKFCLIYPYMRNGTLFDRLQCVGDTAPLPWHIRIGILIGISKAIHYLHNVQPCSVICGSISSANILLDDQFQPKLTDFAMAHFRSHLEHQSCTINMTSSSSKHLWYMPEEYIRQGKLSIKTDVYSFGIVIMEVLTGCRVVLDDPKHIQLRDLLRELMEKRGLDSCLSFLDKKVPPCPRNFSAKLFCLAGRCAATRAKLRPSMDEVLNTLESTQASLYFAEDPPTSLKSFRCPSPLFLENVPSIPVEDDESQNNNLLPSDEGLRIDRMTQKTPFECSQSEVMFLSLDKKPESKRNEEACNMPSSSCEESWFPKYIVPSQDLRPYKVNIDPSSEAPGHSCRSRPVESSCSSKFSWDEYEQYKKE
The settings on record: IRAK3; 1 μM; read-out: % control.

Test [2] addresses T2, panel of 468 kinases (Homo sapiens, UniProt Q9NSY1).
T2 construct: purchased KINOMEscan (ScanMAX) service
The settings on record: BIKE; 1 μM; read-out: % control.

For test [3], the target named is T3, panel of 468 kinases (Homo sapiens, UniProt Q15349).
T3 construct: purchased KINOMEscan (ScanMAX) service
The settings on record: 1 μM, read-out: % control.

Test [4] concerns the target T4, panel of 468 kinases (Homo sapiens, UniProt P54646).
T4 construct: purchased KINOMEscan (ScanMAX) service
The settings on record: AMPK-alpha2; 1 μM; read-out: % control.

Test [5] concerns the target T5, panel of 468 kinases (Homo sapiens, UniProt P00519, Y253F).
T5 construct: purchased KINOMEscan (ScanMAX) service
The settings on record: ABL1(Y253F)-phosphorylated; 1 μM; read-out: % control.

The target in test [6] is T6, panel of 468 kinases (Homo sapiens, UniProt P42336, E545K).
T6 construct: purchased KINOMEscan (ScanMAX) service
The settings on record: PIK3CA(E545K); 1 μM; read-out: % control.

Test [7] addresses T7, panel of 468 kinases (Homo sapiens, UniProt Q9C098).
T7 construct: purchased KINOMEscan (ScanMAX) service
The settings on record: DCAMKL3; 1 μM; read-out: % control.

In test [8] the target is T8, panel of 468 kinases (Homo sapiens, UniProt Q96PN8).
T8 construct: purchased KINOMEscan (ScanMAX) service
T8 sequence (Q96PN8 1-268): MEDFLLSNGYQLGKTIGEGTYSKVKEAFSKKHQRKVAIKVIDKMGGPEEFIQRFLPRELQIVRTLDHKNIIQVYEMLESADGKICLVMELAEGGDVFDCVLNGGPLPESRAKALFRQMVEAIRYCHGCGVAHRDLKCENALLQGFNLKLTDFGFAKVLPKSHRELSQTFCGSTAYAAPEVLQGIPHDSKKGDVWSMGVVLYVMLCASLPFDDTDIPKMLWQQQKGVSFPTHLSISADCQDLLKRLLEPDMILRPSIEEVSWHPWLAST
The settings on record: TSSK3; 1 μM; read-out: % control.

Test [9] has as its target T9, panel of 468 kinases (Homo sapiens, UniProt Q8TD19).
T9 construct: purchased KINOMEscan (ScanMAX) service
T9 sequence (Q8TD19 1-979): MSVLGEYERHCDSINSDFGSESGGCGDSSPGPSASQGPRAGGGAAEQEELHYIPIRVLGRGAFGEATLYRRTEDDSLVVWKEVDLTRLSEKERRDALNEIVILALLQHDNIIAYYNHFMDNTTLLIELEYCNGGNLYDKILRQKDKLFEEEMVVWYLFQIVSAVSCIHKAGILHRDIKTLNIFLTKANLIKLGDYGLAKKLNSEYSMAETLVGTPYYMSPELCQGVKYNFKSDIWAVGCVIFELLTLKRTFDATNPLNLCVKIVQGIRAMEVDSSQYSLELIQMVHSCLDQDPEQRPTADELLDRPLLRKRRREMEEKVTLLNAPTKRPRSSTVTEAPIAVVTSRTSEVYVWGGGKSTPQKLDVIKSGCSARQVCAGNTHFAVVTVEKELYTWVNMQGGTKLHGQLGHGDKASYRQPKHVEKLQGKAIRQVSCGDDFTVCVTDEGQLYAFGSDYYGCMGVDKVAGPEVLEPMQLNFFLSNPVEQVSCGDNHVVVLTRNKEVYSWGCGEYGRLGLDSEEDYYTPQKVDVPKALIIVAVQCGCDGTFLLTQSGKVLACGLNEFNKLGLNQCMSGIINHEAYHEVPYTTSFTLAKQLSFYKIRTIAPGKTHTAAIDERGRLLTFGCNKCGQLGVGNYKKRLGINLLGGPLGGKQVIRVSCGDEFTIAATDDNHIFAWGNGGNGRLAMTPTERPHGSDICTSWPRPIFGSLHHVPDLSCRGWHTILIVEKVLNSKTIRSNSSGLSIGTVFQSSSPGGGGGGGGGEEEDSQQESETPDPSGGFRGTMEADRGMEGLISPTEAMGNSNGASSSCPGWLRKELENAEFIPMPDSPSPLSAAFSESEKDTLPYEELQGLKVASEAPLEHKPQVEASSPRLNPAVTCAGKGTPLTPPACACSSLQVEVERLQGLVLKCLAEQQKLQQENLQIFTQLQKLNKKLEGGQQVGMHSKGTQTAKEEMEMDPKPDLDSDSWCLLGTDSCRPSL
The settings on record: NEK9; 1 μM; read-out: % control.

The target in test [10] is T10, panel of 468 kinases (Homo sapiens, UniProt Q9H4B4).
T10 construct: purchased KINOMEscan (ScanMAX) service
The settings on record: PLK3; 1 μM; read-out: % control.

T7 sequence (Q9C098 whole entry): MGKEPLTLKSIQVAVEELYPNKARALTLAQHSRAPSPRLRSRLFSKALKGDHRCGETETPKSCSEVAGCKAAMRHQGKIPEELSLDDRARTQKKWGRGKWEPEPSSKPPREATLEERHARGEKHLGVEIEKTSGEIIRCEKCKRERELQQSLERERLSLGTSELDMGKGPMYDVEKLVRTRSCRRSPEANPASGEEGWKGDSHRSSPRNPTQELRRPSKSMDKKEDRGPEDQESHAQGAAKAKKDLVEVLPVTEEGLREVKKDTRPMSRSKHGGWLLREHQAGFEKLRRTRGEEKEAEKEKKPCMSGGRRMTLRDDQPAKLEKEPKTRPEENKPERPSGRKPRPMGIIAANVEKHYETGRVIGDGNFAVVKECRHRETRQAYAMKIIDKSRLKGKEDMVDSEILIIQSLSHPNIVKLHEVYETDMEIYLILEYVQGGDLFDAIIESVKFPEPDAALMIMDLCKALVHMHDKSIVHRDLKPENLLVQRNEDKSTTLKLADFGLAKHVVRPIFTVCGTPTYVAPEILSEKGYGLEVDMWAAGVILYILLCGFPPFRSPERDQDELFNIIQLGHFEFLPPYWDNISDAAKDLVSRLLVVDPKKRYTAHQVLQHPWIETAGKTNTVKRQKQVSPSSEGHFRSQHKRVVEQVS
T10 sequence (Q9H4B4 whole entry): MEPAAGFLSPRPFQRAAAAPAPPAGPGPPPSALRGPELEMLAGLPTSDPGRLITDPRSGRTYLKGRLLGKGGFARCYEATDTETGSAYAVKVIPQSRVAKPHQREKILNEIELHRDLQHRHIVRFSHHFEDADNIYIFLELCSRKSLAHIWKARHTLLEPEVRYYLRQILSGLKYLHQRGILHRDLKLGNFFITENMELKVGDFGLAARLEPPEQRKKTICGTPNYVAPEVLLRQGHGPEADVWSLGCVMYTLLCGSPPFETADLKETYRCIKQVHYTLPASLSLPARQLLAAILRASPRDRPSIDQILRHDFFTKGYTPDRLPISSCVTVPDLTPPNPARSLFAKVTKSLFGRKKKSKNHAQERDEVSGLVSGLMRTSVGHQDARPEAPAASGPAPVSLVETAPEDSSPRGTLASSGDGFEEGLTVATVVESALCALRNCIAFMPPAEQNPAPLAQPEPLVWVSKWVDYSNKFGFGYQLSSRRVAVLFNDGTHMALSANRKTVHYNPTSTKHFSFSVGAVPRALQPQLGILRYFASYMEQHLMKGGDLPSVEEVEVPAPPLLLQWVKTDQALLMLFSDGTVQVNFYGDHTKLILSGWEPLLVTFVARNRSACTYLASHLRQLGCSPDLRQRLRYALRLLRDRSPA
T2 sequence (Q9NSY1 whole entry): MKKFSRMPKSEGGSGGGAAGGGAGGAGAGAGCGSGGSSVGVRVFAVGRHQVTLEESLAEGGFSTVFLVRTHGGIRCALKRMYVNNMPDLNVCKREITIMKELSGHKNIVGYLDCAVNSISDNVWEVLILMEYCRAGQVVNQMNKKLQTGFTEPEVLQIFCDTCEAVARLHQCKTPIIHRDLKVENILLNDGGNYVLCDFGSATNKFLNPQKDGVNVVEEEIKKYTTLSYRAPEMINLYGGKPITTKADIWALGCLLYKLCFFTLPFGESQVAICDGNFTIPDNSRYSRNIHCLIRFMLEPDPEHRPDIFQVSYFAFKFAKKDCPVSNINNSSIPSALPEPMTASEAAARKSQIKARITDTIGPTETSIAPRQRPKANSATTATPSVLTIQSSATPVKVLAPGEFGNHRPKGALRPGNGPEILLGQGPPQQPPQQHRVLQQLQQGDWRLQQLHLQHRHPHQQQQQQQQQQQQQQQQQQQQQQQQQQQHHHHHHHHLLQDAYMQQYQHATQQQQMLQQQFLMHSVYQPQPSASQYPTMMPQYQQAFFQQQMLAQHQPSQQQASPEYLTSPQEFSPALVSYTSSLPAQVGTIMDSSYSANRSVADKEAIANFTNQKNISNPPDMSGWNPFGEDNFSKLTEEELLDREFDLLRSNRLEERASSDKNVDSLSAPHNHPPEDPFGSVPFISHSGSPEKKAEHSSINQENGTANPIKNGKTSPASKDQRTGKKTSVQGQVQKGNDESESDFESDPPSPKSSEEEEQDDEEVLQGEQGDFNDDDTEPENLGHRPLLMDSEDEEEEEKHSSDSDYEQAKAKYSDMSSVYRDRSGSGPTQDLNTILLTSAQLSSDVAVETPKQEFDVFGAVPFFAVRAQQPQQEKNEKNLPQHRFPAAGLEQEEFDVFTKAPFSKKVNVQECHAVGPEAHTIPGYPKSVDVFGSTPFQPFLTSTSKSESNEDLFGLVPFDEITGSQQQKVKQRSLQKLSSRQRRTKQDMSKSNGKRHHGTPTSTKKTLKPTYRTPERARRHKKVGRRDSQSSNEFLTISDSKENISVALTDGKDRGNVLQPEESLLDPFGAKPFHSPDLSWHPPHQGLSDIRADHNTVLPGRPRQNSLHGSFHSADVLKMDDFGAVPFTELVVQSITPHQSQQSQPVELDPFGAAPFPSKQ
T6 sequence (P42336 whole entry E545K): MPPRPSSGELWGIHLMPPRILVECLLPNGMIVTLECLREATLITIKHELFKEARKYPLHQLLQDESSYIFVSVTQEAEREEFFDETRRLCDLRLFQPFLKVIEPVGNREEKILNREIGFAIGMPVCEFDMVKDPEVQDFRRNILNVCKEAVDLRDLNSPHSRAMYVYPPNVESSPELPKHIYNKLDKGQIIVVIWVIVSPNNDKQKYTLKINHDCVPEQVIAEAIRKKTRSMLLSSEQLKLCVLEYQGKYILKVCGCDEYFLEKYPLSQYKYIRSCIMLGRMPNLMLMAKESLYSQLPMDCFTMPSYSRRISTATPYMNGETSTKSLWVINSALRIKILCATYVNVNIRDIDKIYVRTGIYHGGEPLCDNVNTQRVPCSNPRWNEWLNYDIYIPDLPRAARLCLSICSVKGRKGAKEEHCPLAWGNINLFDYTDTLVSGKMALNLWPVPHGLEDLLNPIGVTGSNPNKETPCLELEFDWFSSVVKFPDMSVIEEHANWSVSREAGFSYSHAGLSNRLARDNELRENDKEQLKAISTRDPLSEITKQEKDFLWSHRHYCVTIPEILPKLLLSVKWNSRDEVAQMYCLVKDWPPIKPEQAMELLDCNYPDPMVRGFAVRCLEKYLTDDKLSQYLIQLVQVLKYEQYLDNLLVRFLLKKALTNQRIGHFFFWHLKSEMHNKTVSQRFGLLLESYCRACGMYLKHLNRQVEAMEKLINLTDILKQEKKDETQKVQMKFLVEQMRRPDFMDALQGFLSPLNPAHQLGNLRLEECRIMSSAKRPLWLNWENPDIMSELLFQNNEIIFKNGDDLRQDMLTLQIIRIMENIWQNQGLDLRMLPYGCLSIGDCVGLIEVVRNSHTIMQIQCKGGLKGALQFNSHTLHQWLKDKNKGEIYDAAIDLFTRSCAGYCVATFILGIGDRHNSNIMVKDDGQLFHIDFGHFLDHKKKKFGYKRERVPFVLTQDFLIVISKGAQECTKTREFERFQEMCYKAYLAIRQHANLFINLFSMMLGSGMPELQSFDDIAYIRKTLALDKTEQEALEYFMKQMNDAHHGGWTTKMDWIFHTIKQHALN
T4 sequence (P54646 whole entry): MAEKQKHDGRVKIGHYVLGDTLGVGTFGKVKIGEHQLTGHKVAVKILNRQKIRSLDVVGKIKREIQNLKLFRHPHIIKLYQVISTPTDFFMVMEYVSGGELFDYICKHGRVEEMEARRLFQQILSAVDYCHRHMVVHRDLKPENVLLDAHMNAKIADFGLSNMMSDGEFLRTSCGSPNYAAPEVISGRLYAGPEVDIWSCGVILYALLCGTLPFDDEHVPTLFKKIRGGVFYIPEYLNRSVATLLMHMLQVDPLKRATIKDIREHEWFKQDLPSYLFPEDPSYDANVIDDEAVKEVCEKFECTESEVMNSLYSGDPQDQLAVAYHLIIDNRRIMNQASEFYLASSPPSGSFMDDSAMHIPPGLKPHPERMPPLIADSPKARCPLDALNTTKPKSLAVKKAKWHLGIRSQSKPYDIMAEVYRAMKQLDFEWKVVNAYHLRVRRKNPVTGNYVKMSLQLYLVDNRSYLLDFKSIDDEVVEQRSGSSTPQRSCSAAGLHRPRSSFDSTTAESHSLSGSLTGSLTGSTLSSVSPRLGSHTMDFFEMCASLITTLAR
T3 sequence (Q15349 whole entry): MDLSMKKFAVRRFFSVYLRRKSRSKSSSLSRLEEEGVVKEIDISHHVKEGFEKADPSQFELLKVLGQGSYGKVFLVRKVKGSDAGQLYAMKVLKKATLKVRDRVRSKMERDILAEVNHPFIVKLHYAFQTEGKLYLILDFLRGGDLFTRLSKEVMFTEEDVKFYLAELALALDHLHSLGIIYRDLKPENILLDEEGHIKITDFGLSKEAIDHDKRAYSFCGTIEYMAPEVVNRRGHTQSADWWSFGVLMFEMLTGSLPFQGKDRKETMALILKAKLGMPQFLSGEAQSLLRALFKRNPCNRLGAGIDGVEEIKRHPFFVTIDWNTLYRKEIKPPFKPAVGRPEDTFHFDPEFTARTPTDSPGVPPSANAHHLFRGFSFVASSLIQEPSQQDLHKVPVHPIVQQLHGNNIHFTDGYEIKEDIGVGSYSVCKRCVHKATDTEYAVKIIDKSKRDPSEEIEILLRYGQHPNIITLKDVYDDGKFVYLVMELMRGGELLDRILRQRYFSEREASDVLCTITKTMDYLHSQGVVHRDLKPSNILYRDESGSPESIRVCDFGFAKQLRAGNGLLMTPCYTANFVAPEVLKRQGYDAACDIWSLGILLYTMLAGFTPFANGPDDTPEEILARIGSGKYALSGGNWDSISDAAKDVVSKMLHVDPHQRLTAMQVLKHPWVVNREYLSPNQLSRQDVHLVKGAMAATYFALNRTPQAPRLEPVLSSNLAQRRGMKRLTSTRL

As for `CNc1nc(Nc2ccc(C(=O)N3CCC(N4CCOCC4)CC3)c3c2OCO3)nc2[nH]cc(Cl)c12` [Compound 75, (7-((5-chloro-4-(methylamino)-7H-pyrrolo[2,3-d]pyrimidin-2-yl)amino)benzo[d][1,3]dioxol-4-yl)(4-morpholinopiperidin-1-yl)methanone], the remaining binding at 1 µM was found to be 93% in test [1]; 40% in [2]; 100% in test [3] (RSK3(Kin.Dom.1-N-terminal)); 57% in test [3] (RSK3(Kin.Dom.2-C-terminal)); 87% in test [4]; 53% in test [5]. In addition, the remaining binding at 1 µM in [6], in [7], in [8], in [9] and in test [10] was 100% throughout.

On to `CNc1nc(Nc2ccc(P3(=O)CCN(C4CCOCC4)CC3)cc2OC)nc2[nH]cc(Cl)c12` [Compound 77, 4-(4-((5-chloro-4-(methylamino)-7H-pyrrolo[2,3-d]pyrimidin-2-yl)amino)-3-methoxyphenyl)-1-(tetrahydro-2H-pyran-4-yl)-1,4-azaphosphinane 4-oxide], for which the remaining binding at 1 µM in test [1] is 94%; in test [2], 91%; in test [3] (RSK3(Kin.Dom.1-N-terminal)), 100%; in test [3] (RSK3(Kin.Dom.2-C-terminal)), 20%; in test [4], 90%; in [5] it was 53%. The remaining binding at 1 µM was 94% in [6]; 100% in test [7]; 100% in test [8]; 100% in test [9]; 96% in [10].

For `CNc1nc(Nc2ccc(S(=O)(=O)N3CCC(N4CCOCC4)CC3)cc2OC)nc2[nH]cc(Cl)c12` [Compound 12, 5-chloro-N2-(2-methoxy-4-((4-morpholinopiperidin-1-yl)sulfonyl)phenyl)-N4-methyl-7H-pyrrolo[2,3-d]pyrimidine-2,4-diamine], the remaining binding at 1 µM in test [1] was 100%; in test [2], 96%; in test [3] (RSK3(Kin.Dom.1-N-terminal)), 100%; in [3] (RSK3(Kin.Dom.2-C-terminal)), 70%; in [4], 82%; in [5], 51%. The remaining binding at 1 µM was 89% in test [6]; 100% in test [7]; 100% in test [8]; 100% in test [9]; 100% in test [10].
